In the OligoGym collection:
Several values for one entry are separate records, joined by “and”; a condition that tells them apart may be missing. Equal entries are not always repeated. After the bases stand the sugars from the 5' end (letter, count) and the backbone: PS all phosphorothioate, else s phosphorothioate and o phosphodiester by linkage. Methylation of C is not given here. [mop] = methoxypropylphosphonate linkage; e = 2'-O-(2-methoxyethyl) (MOE); k = constrained ethyl (cEt); d = 2'-deoxy (DNA)

Molecular target: IRF5
Conditions: ASO

Row | Sequence | target mRNA inhibition (KARPAS-229, 4 µM) | also measured
1 | CTGATATGATACCTAA (sugars k3 d10 k3, linkages s5 [mop]1 s9) |  | target mRNA inhibition (A-431, 0.00412 µM): 0%; target mRNA inhibition (A-431, 0.01225 µM): 15%; target mRNA inhibition (A-431, 0.03704 µM): 25%; target mRNA inhibition (A-431, 0.11111 µM): 54%; target mRNA inhibition (A-431, 0.33333 µM): 71%; target mRNA inhibition (A-431, 1 µM): 71%
2 | CTGTCACATCTCCACA (sugars k3 d9 k3 e1, PS) | 28% | 
3 | CTGTCACATCTCCACA (sugars kkdddddddddkekek, PS) | 23% | 
4 | CTGTCACATCTCCACA (sugars kkkddddddddkekek, PS) | 0% | 
5 | CTTCTGCAGGGAGTCA (sugars kkddddddddddkeke, PS) | 8% | 
6 | CTTCTGCAGGGAGTCA (sugars kkdddddddddkekek, PS) | 0% | 
7 | CTTGGTCTTGACCTCC (sugars k2 d9 e3 k2, PS) | 11% | 
8 | CTTGGTCTTGACCTCC (sugars kdddddddddkekeke, PS) | 0% | 
9 | CTTGGTCTTGACCTCC (sugars kekdddddddddeekk, PS) | 36% | 
10 | CTTTTTGCTCTAAACC (sugars k3 d10 k3, PS) | 0% | 
11 | GAAGTGAGTCTCAAAC (sugars kdddddddddkekeke, PS) | 11% | 
12 | GAGTCATGGGCTGAGG (sugars k3 d9 k3 e1, PS) | 0% | 
13 | GAGTCATGGGCTGAGG (sugars kkddddddddddkeke, PS) | 40% | 
14 | GAGTGAGACGAGCAAA (sugars k3 d10 k3, PS) | 27% | 
15 | GAGTGAGACGAGCAAA (sugars kkddddddddkekekk, PS) | 17% | 
16 | GCATTCCATATACACA (sugars k3 d9 k3 e1, PS) | 25% | 
17 | GCATTCCATATACACA (sugars kddddddddddkekek, PS) | 39% | 
18 | GCATTCCATATACACA (sugars kekdddddddddeekk, PS) | 48% | 
19 | GCATTCCATATACACA (sugars kkkdddddddddkeke, PS) | 45% | 
20 | GCATTCCATATACACA (sugars kkkddddddddkdkdk, PS) | 0% | 
21 | GCCTTCTGCAGGGAGT (sugars k3 d10 k3, PS) | 0% | 
22 | GCTGTCACATCTCCAC (sugars k3 d9 k3 e1, PS) | 23% | 
23 | GCTGTCACATCTCCAC (sugars kekdddddddddeekk, PS) | 0% | 

Row | Sequence | target mRNA inhibition (KARPAS-229, 4 µM) | also measured
24 | GCTGTCACATCTCCAC (sugars kkdddddddddkekek, PS) | 5% | 
25 | GCTTGGTCTTGACCTC (sugars k3 d9 k3 e1, PS) | 29% | 
26 | GCTTGGTCTTGACCTC (sugars kdddddddddkekeke, PS) | 17% | 
27 | GCTTGGTCTTGACCTC (sugars kkdddddddddkdkdk, PS) | 11% | 
28 | GCTTGGTCTTGACCTC (sugars kkkddddddddkekek, PS) | 0% | 
29 | GGAAGTGAGTCTCAAA (sugars kkddddddddddkeke, PS) | 55% and 49% | target mRNA inhibition (KARPAS-229, 0.44444 µM): 6%; target mRNA inhibition (KARPAS-229, 1.33333 µM): 12%; target mRNA inhibition (KARPAS-229, 12 µM): 65%
30 | GGTCTGGCCCTTTTGG (sugars k3 d10 k3, PS) | 16% | 
31 | GGTCTGGCCCTTTTGG (sugars kkkddddddddkekek, PS) | 2% | 
32 | GGTCTTGACCTCCCGC (sugars k3 d9 k3 e1, PS) | 22% | 
33 | GGTCTTGACCTCCCGC (sugars kekdddddddddeekk, PS) | 33% | 
34 | GGTCTTGACCTCCCGC (sugars kkkdddddddddkeke, PS) | 7% | 
35 | GGTCTTTGAGGTCTGG (sugars kkdddddddddkdkdk, PS) | 56% | 
36 | GGTGAGTAGGACGAGT (sugars k3 d10 k3, PS) | 48% | 
37 | GGTGTATTTCCCTGTC (sugars k3 d10 k3, PS) |  | target mRNA inhibition (KARPAS-229, 0.44444 µM): 32% and 25%; target mRNA inhibition (KARPAS-229, 1.33333 µM): 38% and 56%; target mRNA inhibition (KARPAS-229, 12 µM): 69% and 67%
38 | GGTGTATTTCCCTGTC (sugars kkddddddddddkeke, PS) | 21% | 
39 | GGTTCTTGGACTCTCA (sugars k2 d11 k3, PS) | 47% | 
40 | GGTTCTTGGACTCTCA (sugars k3 d9 k3 e1, PS) | 0% | 
41 | GGTTCTTGGACTCTCA (sugars k3 d10 k3, PS) |  | target mRNA inhibition (KARPAS-229, 0.44444 µM): 52% and 54%; target mRNA inhibition (KARPAS-229, 1.33333 µM): 65% and 72%; target mRNA inhibition (KARPAS-229, 12 µM): 86% and 82%
42 | GGTTCTTGGACTCTCA (sugars kekdddddddddeekk, PS) | 60% and 66% | target mRNA inhibition (KARPAS-229, 0.44444 µM): 31%; target mRNA inhibition (KARPAS-229, 1.33333 µM): 44%; target mRNA inhibition (KARPAS-229, 12 µM): 81%
43 | GGTTCTTGGACTCTCA (sugars kkdddddddddkdkdk, PS) | 29% | 
44 | GGTTCTTGGACTCTCA (sugars kkddddddddkekekk, PS) | 0% | 
45 | GTAATAGGAGTGAGAC (sugars k3 d10 k3, PS) | 11% | 
46 | GTCTAGTGTCATGGAA (sugars kddddddddddkekek, PS) | 42% | 

Row | Sequence | target mRNA inhibition (KARPAS-229, 4 µM) | also measured
47 | GTCTAGTGTCATGGAA (sugars kdddddddddkekeke, PS) | 35% | 
48 | GTCTGGCCCTTTTGGA (sugars kkkddddddddkekek, PS) | 0% | 
49 | GTCTTGACCTCCCGCT (sugars k3 d9 k3 e1, PS) | 51% | 
50 | GTCTTGACCTCCCGCT (sugars kkddddddddddkeke, PS) | 65% and 69% | target mRNA inhibition (KARPAS-229, 0.44444 µM): 38%; target mRNA inhibition (KARPAS-229, 1.33333 µM): 47%; target mRNA inhibition (KARPAS-229, 12 µM): 78%
51 | GTCTTTGAGGTCTGGG (sugars kkddddddddkekekk, PS) | 34% | 
52 | GTGAGTCTCAAACCAG (sugars kkddddddddddkeke, PS) | 31% | 
53 | GTGTATTTCCCTGTCT (sugars k2 d9 e3 k2, PS) | 16% | 
54 | GTGTCATGGAATTTTG (sugars k3 d10 k3, PS) | 58% | 
55 | GTTCTTGGACTCTCAA (sugars k3 d9 k3 e1, PS) | 37% | 
56 | GTTCTTGGACTCTCAA (sugars kddddddddddkekek, PS) | 35% | 
57 | GTTCTTGGACTCTCAA (sugars kdddddddddkekeke, PS) | 0% | 
58 | GTTCTTGGACTCTCAA (sugars kkddddddddkekekk, PS) | 0% | 
59 | GTTCTTGGACTCTCAA (sugars kkkddddddddkekek, PS) | 0% | 
60 | GTTGAATTTTGTGACT (sugars k3 d9 k3 d1, PS) | 0% | 
61 | TAATAGGAGTGAGACG (sugars k3 d10 k3, PS) | 12% | 
62 | TATCTCCGTCCTGGCT (sugars kddddddddddkekek, PS) | 0% | 
63 | TATTTCTGCTCCAGGT (sugars k3 d9 k3 e1, PS) | 45% and 67% | target mRNA inhibition (KARPAS-229, 0.44444 µM): 46%; target mRNA inhibition (KARPAS-229, 1.33333 µM): 52%; target mRNA inhibition (KARPAS-229, 12 µM): 74%
64 | TATTTCTGCTCCAGGT (sugars kkdddddddddkekek, PS) | 5% | 
65 | TCACCACTGTGTACCC (sugars k3 d9 k3 e1, PS) | 21% | 
66 | TCACCACTGTGTACCC (sugars kkddddddddddkeke, PS) | 0% | 
67 | TCACCACTGTGTACCC (sugars kkdddddddddkdkdk, PS) | 0% | 
68 | TCAGCTTTCTTGTCTA (sugars k3 d10 k3, PS) | 15% | 
69 | TCCAATTTTGCATTCC (sugars k3 d9 k3 e1, PS) | 7% | 

Row | Sequence | target mRNA inhibition (KARPAS-229, 4 µM) | also measured
70 | TCCAATTTTGCATTCC (sugars kddddddddddkekek, PS) | 37% | 
71 | TCCAATTTTGCATTCC (sugars kdddddddddkekeke, PS) | 6% | 
72 | TCCAATTTTGCATTCC (sugars kekdddddddddeekk, PS) | 78% and 76% | target mRNA inhibition (KARPAS-229, 0.44444 µM): 42%; target mRNA inhibition (KARPAS-229, 1.33333 µM): 68%; target mRNA inhibition (KARPAS-229, 12 µM): 82%
73 | TCTGATATGATACCTA (sugars k3 d2 k1 d7 k3, PS) |  | target mRNA inhibition (A-431, 0.00412 µM): 4%; target mRNA inhibition (A-431, 0.01225 µM): 8%; target mRNA inhibition (A-431, 0.03704 µM): 36%; target mRNA inhibition (A-431, 0.11111 µM): 54%; target mRNA inhibition (A-431, 0.33333 µM): 69%; target mRNA inhibition (A-431, 1 µM): 74%
74 | TCTGGCCCTTTTGGAA (sugars kdddddddddkekeke, PS) | 0% | 
75 | TCTTGACCTCCCGCTG (sugars kkddddddddkekekk, PS) | 19% | 
76 | TCTTGTCTAGTGTCAT (sugars k3 d10 k3, PS) | 0% | 
77 | TGAGTCATGGAGCTGAG (sugars kdddddddddkekeked, PS) | 0% | 
78 | TGAGTCATGGGCTGAG (sugars kkdddddddddkekek, PS) | 0% | 
79 | TGAGTCATGGGCTGAG (sugars kkddddddddkekekk, PS) | 0% | 
80 | TGAGTCTCAAACCAGG (sugars k2 d8 e4 k2, PS) | 0% | 
81 | TGAGTCTCAAACCAGG (sugars kkdddddddddkdkdk, PS) | 0% | 
82 | TGATTCCAATTTTGCA (sugars k3 d10 k3, PS) | 17% | 
83 | TGCAACATCCATCAAT (sugars k3 d10 k2 d1, PS) | 0% | 
84 | TGCACTGACACAGGCG (sugars k2 d8 e4 k2, PS) | 0% | 
85 | TGCACTGACACAGGCG (sugars kkddddddddkekekk, PS) | 0% | 
86 | TGTCTAGTGTCATGGA (sugars k2 d8 e4 k2, PS) | 54% | 
87 | TTAAGGGCACAGCGCA (sugars k3 d10 k3, PS) | 0% | 
88 | TTATCTCCGTCCTGGC (sugars kkkddddddddkekek, PS) | 0% | 
89 | TTATTTCTGCTCCAGG (sugars k3 d9 k3 e1, PS) | 28% | 
90 | TTATTTCTGCTCCAGG (sugars kkddddddddddkeke, PS) | 26% | 
91 | TTATTTCTGCTCCAGG (sugars kkddddddddkekekk, PS) | 0% | 
92 | TTATTTCTGCTCCAGG (sugars kkkddddddddkekek, PS) | 23% | 
